Data: patent publication US20040014143A1, “Method and apparatus for detecting and monitoring peptides, and peptides identified therewith” (priority 2002, published 2004)
Read-outs that look alike come from different tables or passages of the source.

Experiments:
GABA production = details: previous microdialysis studies; cited from earlier work
[1] = test system: neurotransmitter levels (aspartate, GABA, glutamate); details: infusion of 10 μM peptide into the dialysis probe, n=2
opioid receptors = test: Receptor assays probing binding to opioid receptors; details: data not shown

| Molecule | effect on GABA production (GABA production) | glutamate levels (GABA production) | GABA level (change in words) [1] | aspartate level (change in words) [1] | glutamate levels (change in words) [1] | GABA level (change in words) ([1]; listed as I11lo peptide) | aspartate level (change in words) ([1]; listed as I11lo peptide) | binding to opioid receptors (opioid receptors) |
| --- | --- | --- | --- | --- | --- | --- | --- | --- |
| CN1CCc2cccc3c2[C@H]1Cc1ccc(O)c(O)c1-3 [apomorphine] | stimulates GABA production | remain the same |  |  |  |  |  |  |
| SPQLEDEAKE (listed as Rattus norvegicus) [peptide I1-10, novel product of preproenkephalin A processing] |  |  | increase | increase | remained the same | increases | increases | negative |
| YGGFL [Leu-enkephalin] | inhibits nicotine-stimulated GABA production |  |  |  |  |  |  |  |
